PubChem BioAssay (NCI)
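Five compound concentrations were applied to cells in 96-well plates for 48 hours; endpoints were derived by simple linear interpolation of the resulting dose-response curve. GI50 = concentration required for 50% inhibition of growth. The concentration for full growth arrest is given as TGI.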

Legend:
Test in all cases: NCI-60 cell line screen, 48 h; in the data active means GI50 below about 0.43 µM; inactive means the rest
[1] = tested on: UO-31 renal
[2] = tested on: NCI-H522 lung
[3] = tested on: UACC-257 melanoma
[4] = tested on: HT29 colon
[5] = tested on: T-47D breast
[6] = tested on: RPMI-8226 leukemia
[7] = tested on: HOP-62 NSCLC
[8] = tested on: NCI-H23 lung
[9] = tested on: SF-539 CNS
[10] = tested on: SK-MEL-5 melanoma
[11] = tested on: SK-MEL-28 melanoma
[12] = tested on: MOLT-4 leukemia
[13] = tested on: K-562 leukemia
[14] = tested on: HCT-15 colon
[15] = tested on: SNB-19 CNS
[16] = tested on: HCT-116 colon
[17] = tested on: UACC-62 melanoma
[18] = tested on: PC-3 prostate
[19] = tested on: 786-0 renal
[20] = tested on: OVCAR-3 ovarian
[21] = tested on: NCI/ADR-RES ovarian
[22] = tested on: SR leukemia
[23] = tested on: OVCAR-8 ovarian
[24] = tested on: MCF7 breast
[25] = tested on: HL-60(TB) leukemia
[26] = tested on: M14 melanoma
[27] = tested on: MDA-MB-435
[28] = tested on: SK-MEL-2 melanoma
[29] = tested on: SN12C renal
[30] = tested on: OVCAR-5 ovarian
[31] = tested on: KM12 colon
[32] = tested on: CCRF-CEM leukemia
[33] = tested on: MDA-MB-231 breast
[34] = tested on: SW-620 colon
[35] = tested on: SF-268 CNS
[36] = tested on: U251 CNS
[37] = tested on: SNB-75 CNS
[38] = tested on: NCI-H460 lung
[39] = tested on: MALME-3M melanoma
[40] = tested on: A498 renal
[41] = tested on: HCC-2998 colon
[42] = tested on: RXF 393 renal
[43] = tested on: TK-10 renal
[44] = tested on: DU-145 prostate
[45] = tested on: HS 578T breast
[46] = tested on: CAKI-1 renal
[47] = tested on: SK-OV-3 ovarian
[48] = tested on: ACHN renal
[49] = tested on: BT-549 breast
[50] = tested on: EKVX NSCLC
[51] = tested on: HOP-92 NSCLC
[52] = tested on: OVCAR-4 ovarian
[53] = tested on: COLO 205 colon
[54] = tested on: NCI-H226 lung
[55] = tested on: SF-295 CNS
[56] = tested on: IGROV1 ovarian
[57] = tested on: A549 NSCLC
[58] = tested on: LOX IMVI melanoma

O=C1/C=C/[C@@H](O)[C@@H]2C[C@@H](O)C[C@H]2/C=C/CCC[C@H](C(F)(F)F)O1
0.292 µM: TGI [39]
24.7 µM: TGI [30]
0.625 µM: TGI [12]
0.32 µM: TGI [10]
0.15 µM: TGI [53]
0.464 µM: TGI [20]
10.8 µM: TGI [49]
0.469 µM: TGI [19]
0.388 µM: TGI [58]
0.774 µM: TGI [33]
4.17 µM: TGI [8]
6.98 µM: TGI [14]
0.813 µM: TGI [24]
inactive: GI50 [7] 2.14 µM | GI50 [9] 0.504 µM | GI50 [15] 6.98 µM | GI50 [18] 0.502 µM | GI50 [29] 0.779 µM | GI50 [30] 0.933 µM | GI50 [31] 1.54 µM | GI50 [36] 1.7 µM | GI50 [38] 9.54 µM | GI50 [41] 1.14 µM | GI50 [44] 0.955 µM | GI50 [47] 16.4 µM | GI50 [50] 1.33 µM | GI50 [55] > 27 µM | GI50 [56] 0.561 µM | GI50 [57] 2.1 µM
0.52 µM: TGI [5]
0.715 µM: TGI [40]
0.568 µM: TGI [51]
0.515 µM: TGI [2]
> 100 µM: TGI [7] | TGI [9] | TGI [15] | TGI [18] | TGI [36] | TGI [37] | TGI [38] | TGI [44] | TGI [45] | TGI [47] | TGI [50] | TGI [52] | TGI [55] | TGI [57]
active: GI50 [1] 0.0813 µM | GI50 [2] 0.191 µM | GI50 [3] 0.053 µM | GI50 [4] 0.0678 µM | GI50 [5] 0.184 µM | GI50 [6] 0.274 µM | GI50 [8] 0.285 µM | GI50 [10] 0.128 µM | GI50 [11] 0.096 µM | GI50 [12] 0.174 µM | GI50 [13] 0.336 µM | GI50 [14] 0.32 µM | GI50 [16] 0.153 µM | GI50 [17] 0.223 µM | GI50 [19] 0.126 µM | GI50 [20] 0.103 µM | GI50 [21] 0.408 µM | GI50 [22] 0.199 µM | GI50 [23] 0.254 µM | GI50 [24] 0.0896 µM | GI50 [25] 0.243 µM | GI50 [26] 0.171 µM | GI50 [27] 0.36 µM | GI50 [28] 0.244 µM | GI50 [32] 0.205 µM | GI50 [33] 0.268 µM | GI50 [34] 0.142 µM | GI50 [35] 0.403 µM | GI50 [37] 0.0603 µM | GI50 [39] 0.0437 µM | GI50 [40] 0.0705 µM | GI50 [42] 0.0864 µM | GI50 [43] 0.0888 µM | GI50 [45] 0.347 µM | GI50 [46] 0.178 µM | GI50 [48] 0.197 µM | GI50 [49] 0.211 µM | GI50 [51] 0.126 µM | GI50 [52] 0.139 µM | GI50 [53] 0.0381 µM | GI50 [54] 0.0687 µM | GI50 [58] 0.137 µM
11.4 µM: TGI [21]
1.01 µM: TGI [3]
0.38 µM: TGI [4]
> 69.1 µM: TGI [13]
0.68 µM: TGI [54]
0.78 µM: TGI [28] | TGI [43]
13.8 µM: TGI [29]
38.7 µM: TGI [42]
3.71 µM: TGI [26]
0.385 µM: TGI [16]
2.25 µM: TGI [1]
> 44.5 µM: TGI [27]
0.591 µM: TGI [22]
> 35.4 µM: TGI [17]
0.65 µM: TGI [11]
4.16 µM: TGI [56]
9.03 µM: TGI [23]
0.331 µM: TGI [34]
> 77.8 µM: TGI [35]
16.2 µM: TGI [31]
27.4 µM: TGI [46]
1.04 µM: TGI [6]
0.605 µM: TGI [25]
9.2 µM: TGI [41]
0.916 µM: TGI [32]

CNc1ncc(-c2nnnn2-c2ccccc2)c(CN(C)C)n1
> 100 µM: TGI [1] | TGI [2] | TGI [3] | TGI [4] | TGI [5] | TGI [6] | TGI [7] | TGI [8] | TGI [9] | TGI [10] | TGI [11] | TGI [12] | TGI [13] | TGI [14] | TGI [15] | TGI [16] | TGI [17] | TGI [18] | TGI [19] | TGI [20] | TGI [21] | TGI [22] | TGI [23] | TGI [24] | TGI [25] | TGI [26] | TGI [27] | TGI [28] | TGI [29] | TGI [30] | TGI [31] | TGI [32] | TGI [33] | TGI [34] | TGI [35] | TGI [36] | TGI [37] | TGI [38] | TGI [39] | TGI [40] | TGI [41] | TGI [42] | TGI [43] | TGI [44] | TGI [45] | TGI [46] | TGI [47] | TGI [48] | TGI [49] | TGI [50] | TGI [51] | TGI [53] | TGI [54] | TGI [55] | TGI [56] | TGI [57] | TGI [58]
